This note sets out measurements from patent US9682940B2, “Indazole derivatives useful as CB-1 inverse agonists” (Janssen Pharmaceutica NV, priority 2015, dated 2017).

Assay [1] concerns the target Human CB1R (Cannabanoid receptor 1) (Homo sapiens (Human), UniProt P21554). The assay can be described thus: CB-1 in vitro cAMP (HTRF) assay in HEK-293 cells. It counts as cell-based. The note with it: HEK-293 cells stably transfected with human CB1R, 250 nM Forskolin, mean where tested more than once, read-out: CB-1 (HEK_cAMP) EC50. From the text: (§1) CB1 and CB2 receptors are Gi-coupled GPCR. Activation of CB1 and CB2 receptors results in a decrease in cAMP production. An inverse agonist of the CB1 or CB2 receptor results in the opposite effect, an increase of cAMP production. The principle of this assay is based on HTRF® technology (Homogeneous Time-Resolved Fluorescence). The method is a competitive immunoassay between native cAMP produced by cells and the cAMP labeled with the fluorophore d2. The tracer binding is quantified by a Mab anti-cAMP labeled with Eu3+TBP-NHS Cryptate (supplied as part of the assay kit). The specific signal (i.e. energy transfer) is inversely proportional to the concentration of cAMP in the standard or sample.
(§2) Human CB1R (Cannabanoid receptor 1) was stably transfected in HEK-293 cells (DiscoveRx, cat: 93-0200C1). Human CB2R (Cannabanoid receptor 2) was stably transfected in HEK-293 cells (DiscoveRx, cat: 93-0201C1). Cell cultures were maintained in media: DMEM (Invitrogen Cat#12430-054) supplemented with 10% HI FBS (Invitrogen Cat#16140-071), 1% L-glutamine (Invitrogen Cat#25030-081), 0.2 mg/ml Hygromycin B (Invitrogen Cat#10687-010), 600 μg/mL G418 (Invitrogen Cat#10131-035), and 1× Penn/Strep (Invitrogen 15140-122). After cell expansion, aliquots were cryo-stored in media containing 5% DMSO (Pierce Cat#20684).
(§3) One day prior to experiments media was warmed to 37° C. and the cryo-stored cells were thawed in a 37° C. water bath. The cells were then added to media (10× volume) and the mixture was centrifugated at 1000 RPM for 5 min. The supernate was removed and the cells were re-suspended in media. A sample of the cell suspension was evaluated on a Cedex XS automated cell counter (Innovatis Systems) to determine viable cells/ml. Additional media was added to the cells to achieve a final cell density of 4E5 cells/mL. The cells were then plated into 384 well PDL white solid bottom plates (Greiner, Cat#781945) at 20 μL per well using a Multidrop (Thermo Scientific). Cells were removed from Row P (location of cAMP standards). Two columns of cells were plated into a clear bottom 384 well PDL coated plate (Greiner, Cat#781944) to view confluence the day of the assay. The cell plates were lidded and stored for 15 minutes in a hood, then transferred to an incubator (37° C., 5% CO2, 95% humidity) overnight.
(§4) DMSO was added to all wells of 384 well V bottom polystyrene plate (Greiner, Cat#781280) except to columns 1 and 13, rows O and P and wells M13-M23 and N13-N23. Test compounds (60 μL, 10 mM) were added to Column 1 and 13 (A1 through N1 and A13 through L13). Test compounds were serially diluted 1/3 by transferring and mixing 20 μl sample with 40 μL DMSO.
(§5) DMSO (40 μL) was added to wells of 384 well V bottom polystyrene plate: O2 through O11, M14 through M23, N14 through N23, and O14 through 023. AM630 (also known as [6-iodo-2-methyl-1-[2-(4-morpholinyl)ethyl]-1H-indol-3-yl](4-methoxyphenyl)-methanone, Cayman Chemical, Cat#10006974) (60 μL, 10 mM) was added to 01; and 1-(2,4-dichlorophenyl)-7-[(4-fluorophenyl)methylene]-4,5,6,7-tetrahydro-N-1-piperidinyl-1H-indazole-3-carboxamide (60 μL, 10 mM) was added to N13. The control was serially diluted 1/3 by transferring and mixing 20 μl sample with 40 μL DMSO. This process resulted 11 doses per control, 10 mM to […].
(§6) Cells plated the day prior to the assay in clear bottom plates were viewed on an inverse microscope to ensure confluency in the range of 60-75%. […]
Background: Time-resolved FRET reads energy transfer from a long-lived donor to a nearby acceptor.

The target of assay [2] is Human CB2R (Cannabanoid receptor 2) (Homo sapiens (Human), UniProt P34972). Description: CB-2 in vitro cAMP (HTRF) assay in HEK-293 cells. It is filed as cell-based. As to conditions: HEK-293 cells stably transfected with human CB2R, 250 nM Forskolin, mean where tested more than once, read-out: CB-2 (HEK_cAMP) EC50.
Excerpt: as §1, §2, §3, §4, §5, §6

Broadly, the EC50 is the concentration giving half of the maximal effect.

Sequence of Human CB2R (Cannabanoid receptor 2) (P34972 whole entry): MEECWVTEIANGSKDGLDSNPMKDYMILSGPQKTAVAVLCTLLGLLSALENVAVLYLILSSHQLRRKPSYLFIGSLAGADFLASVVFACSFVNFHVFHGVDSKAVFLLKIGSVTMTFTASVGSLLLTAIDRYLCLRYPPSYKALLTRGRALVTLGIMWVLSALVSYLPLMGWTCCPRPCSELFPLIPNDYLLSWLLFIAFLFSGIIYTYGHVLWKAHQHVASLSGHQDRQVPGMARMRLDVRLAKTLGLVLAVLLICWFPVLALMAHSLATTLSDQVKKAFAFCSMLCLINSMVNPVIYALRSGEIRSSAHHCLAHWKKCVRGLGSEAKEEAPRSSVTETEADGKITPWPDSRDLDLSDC
Sequence of Human CB1R (Cannabanoid receptor 1) (P21554 whole entry): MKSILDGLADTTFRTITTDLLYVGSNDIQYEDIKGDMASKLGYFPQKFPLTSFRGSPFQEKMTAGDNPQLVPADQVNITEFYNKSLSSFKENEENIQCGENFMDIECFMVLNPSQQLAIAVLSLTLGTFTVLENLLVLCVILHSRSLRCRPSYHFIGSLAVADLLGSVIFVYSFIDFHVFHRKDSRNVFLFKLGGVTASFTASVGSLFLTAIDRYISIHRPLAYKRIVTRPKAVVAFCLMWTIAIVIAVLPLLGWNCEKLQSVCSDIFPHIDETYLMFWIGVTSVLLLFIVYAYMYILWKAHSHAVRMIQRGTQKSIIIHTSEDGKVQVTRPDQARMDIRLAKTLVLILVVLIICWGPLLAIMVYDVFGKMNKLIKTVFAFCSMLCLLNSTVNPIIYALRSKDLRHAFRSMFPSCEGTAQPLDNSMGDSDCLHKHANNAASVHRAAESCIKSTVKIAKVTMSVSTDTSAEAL

Consider `NC(=O)c1cccc(S(=O)(=O)N2CCC(c3nn(C4CC4)c4ccc(C(c5ccc(Cl)cc5)c5ccc(Cl)cc5)cc34)CC2)c1` [Compound 94], for which the EC50 in assay [1] was 65 nM; in assay [2] it was more than 10000 nM.
For the compound `NC(=O)c1ccc(S(=O)(=O)N2CCC(c3nn(C4CC4)c4ccc(C(c5ccc(Cl)cc5)c5ccc(Cl)cc5)cc34)CC2)cc1` [Compound 95], the EC50 came out at 63 nM in assay [1] and 6500 nM in assay [2].
Consider `NC(=O)c1ccccc1C(=O)N1CCC(c2nn(C3CC3)c3ccc(C(c4ccc(Cl)cc4)c4ccc(Cl)cc4)cc23)CC1` [Compound 96], for which the EC50 in assay [1] was 2240 nM; in assay [2] it was more than 10000 nM.
For the compound `O=C(O)c1cccc(C(=O)N2CCC(c3nn(C4CC4)c4ccc(C(c5ccc(Cl)cc5)c5ccc(Cl)cc5)cc34)CC2)c1` [Compound 97], the EC50 in assay [1] was 478 nM; in assay [2], more than 10000 nM.
As for `NC(=O)c1cccc(C(=O)N2CCC(c3nn(C4CC4)c4ccc(C(c5ccc(Cl)cc5)c5ccc(Cl)cc5)cc34)CC2)c1` [Compound 98], the EC50 in assay [1] is 64 nM; in assay [2], more than 10000 nM.
In the case of `O=C(O)c1ccc(C(=O)N2CCC(c3nn(C4CC4)c4ccc(C(c5ccc(Cl)cc5)c5ccc(Cl)cc5)cc34)CC2)cc1` [Compound 99], the EC50 is 345 nM in assay [1] and more than 10000 nM in assay [2].
With `COc1ccccc1S(=O)(=O)N1CCC(Nc2n[nH]c3ccc(C(c4ccc(Cl)cc4)c4ccc(Cl)cc4)cc23)CC1` [Compound 100], the EC50 was 428 nM in assay [1] and more than 10000 nM in assay [2].
Taken in the same sequence, the figures for `COc1cccc(S(=O)(=O)N2CCC(Nc3n[nH]c4ccc(C(c5ccc(Cl)cc5)c5ccc(Cl)cc5)cc34)CC2)c1` [Compound 101] were 293 nM and more than 10000 nM.
The like results for `O=C(O)CC(=O)N1CCC(c2nn(C3CC3)c3ccc(C(c4ccc(Cl)cc4)c4ccc(Cl)cc4)cc23)CC1` [Compound 102] were, in that order, 477 nM and more than 10000 nM.
Regarding `O=C(O)c1ccccc1C(=O)N1CCC(c2nn(C3CC3)c3ccc(C(c4ccc(Cl)cc4)c4ccc(Cl)cc4)cc23)CC1` [Compound 103], the EC50 in assay [1] was 6010 nM; in assay [2], more than 10000 nM.
For `NC(=O)c1ccc(C(=O)N2CCC(c3nn(C4CC4)c4ccc(C(c5ccc(Cl)cc5)c5ccc(Cl)cc5)cc34)CC2)cc1` [Compound 104], the EC50 in assay [1] was 7 nM; in assay [2], more than 10000 nM.
On to `O=S(=O)(N1CCC(c2nn(C3CC3)c3ccc(C(c4ccc(Cl)cc4)c4ccc(Cl)cc4)cc23)CC1)C(F)(F)F` [Compound 105], for which the EC50 in assay [1] was 8 nM; in assay [2], more than 10000 nM.
For `O=C(O)CCS(=O)(=O)N1CCC(c2nn(C3CC3)c3ccc(C(c4ccc(Cl)cc4)c4ccc(Cl)cc4)cc23)CC1` [Compound 106], the values for the EC50 in assay [1] and in assay [2] were 9200 nM and more than 10000 nM, respectively.
Take `O=C(O)CCC(=O)N1CCC(c2nn(C3CC3)c3ccc(C(c4ccc(Cl)cc4)c4ccc(Cl)cc4)cc23)CC1` [Compound 107]: the EC50 in assay [1] is 920 nM; in assay [2], more than 10000 nM.
`O=C(CCO)N1CCC(c2nn(C3CC3)c3ccc(C(c4ccc(Cl)cc4)c4ccc(Cl)cc4)cc23)CC1` [Compound 108]: the EC50 was 37 nM in assay [1] and more than 10000 nM in assay [2].
Regarding `O=C(O)CCS(=O)(=O)N1CCC(c2nn(C3CC3)c3ccc(C(c4ccc(Cl)cc4)c4ccc(Cl)cc4)cc23)CC1` [Compound 109], the EC50 was 729 nM in assay [1] and more than 10000 nM in assay [2].
As to `O=C(CO)N1CCC(c2c3cc(C(c4ccc(Cl)cc4)c4ccc(Cl)cc4)ccc3nn2C2CC2)CC1` [Compound 110], the results for the EC50 in assay [1] and in assay [2] were 134 nM and more than 10000 nM, respectively.
Turning to `O=C(O)c1cccc(C(=O)N2CCC(c3c4cc(C(c5ccc(Cl)cc5)c5ccc(Cl)cc5)ccc4nn3C3CC3)CC2)c1` [Compound 111], the EC50 in assay [1] was 3500 nM; in assay [2] it was more than 10000 nM.
As to `NC(=O)c1cccc(C(=O)N2CCC(c3c4cc(C(c5ccc(Cl)cc5)c5ccc(Cl)cc5)ccc4nn3C3CC3)CC2)c1` [Compound 112], the EC50 in assay [1] is 62 nM; in assay [2], more than 10000 nM.
Taken in the same sequence, the figures for `O=C(O)c1ccc(C(=O)N2CCC(c3c4cc(C(c5ccc(Cl)cc5)c5ccc(Cl)cc5)ccc4nn3C3CC3)CC2)cc1` [Compound 113] were 4240 nM and more than 10000 nM.
On to `NC(=O)c1ccc(C(=O)N2CCC(c3c4cc(C(c5ccc(Cl)cc5)c5ccc(Cl)cc5)ccc4nn3C3CC3)CC2)cc1` [Compound 114], for which the EC50 was 283 nM in assay [1] and 9900 nM in assay [2].
In the case of `NC(=O)CS(=O)(=O)N1CCC(c2nn(C3CC3)c3ccc(C(c4ccc(Cl)cc4)c4ccc(Cl)cc4)cc23)CC1` [Compound 115], the results for the EC50 in assay [1] and in assay [2] were 1010 nM and more than 10000 nM, respectively.
As for `O=C(O)c1cccc(S(=O)(=O)N2CCC(c3c4cc(C(c5ccc(Cl)cc5)c5ccc(Cl)cc5)ccc4nn3C3CC3)CC2)c1` [Compound 116, 3-(4-(5-(bis(4-chlorophenyl)methyl)-2-cyclopropyl-2H-indazol-3-yl)piperidin-1-ylsulfonyl)benzoic acid], the figures for the EC50 in assay [1] and in assay [2] were 5 nM and 7990 nM, respectively.
On to `O=C(O)c1ccc(S(=O)(=O)N2CCC(c3c4cc(C(c5ccc(Cl)cc5)c5ccc(Cl)cc5)ccc4nn3C3CC3)CC2)cc1` [Compound 117, 4-(4-(5-(bis(4-chlorophenyl)methyl)-2-cyclopropyl-2H-indazol-3-yl)piperidin-1-ylsulfonyl)benzoic acid], for which the EC50 was determined as 9 nM in assay [1] and 1550 nM in assay [2].
On to `NC(=O)c1ccc(S(=O)(=O)N2CCC(c3c4cc(C(c5ccc(Cl)cc5)c5ccc(Cl)cc5)ccc4nn3C3CC3)CC2)cc1` [Compound 118, 4-(4-(5-(bis(4-chlorophenyl)methyl)-2-cyclopropyl-2H-indazol-3-yl)piperidin-1-ylsulfonyl)benzamide], for which the EC50 was 4 nM in assay [1] and more than 10000 nM in assay [2].
For the compound `COc1ccc(S(=O)(=O)N2CCC(Nc3n[nH]c4ccc(C(c5ccc(Cl)cc5)c5ccc(Cl)cc5)cc34)CC2)cc1` [Compound 119], the EC50 in assay [1] was 144 nM; in assay [2] it was more than 10000 nM.
Taken in the same sequence, the figures for `NC(=O)c1ccc(S(=O)(=O)N2CCC(Nc3n[nH]c4ccc(C(c5ccc(Cl)cc5)c5ccc(Cl)cc5)cc34)CC2)cc1` [Compound 120] were 50 nM and more than 10000 nM.
In the case of `NC(=O)c1ccccc1S(=O)(=O)N1CCC(Nc2n[nH]c3ccc(C(c4ccc(Cl)cc4)c4ccc(Cl)cc4)cc23)CC1` [Compound 121], the EC50 in assay [1] is 375 nM; in assay [2] it was more than 10000 nM.
Regarding `NC(=O)c1cccc(S(=O)(=O)N2CCC(Nc3n[nH]c4ccc(C(c5ccc(Cl)cc5)c5ccc(Cl)cc5)cc34)CC2)c1` [Compound 122], the EC50 in assay [1] is 99 nM; in assay [2] it was more than 10000 nM.
Regarding `O=C(O)c1ccccc1S(=O)(=O)N1CCC(c2c3cc(C(c4ccc(Cl)cc4)c4ccc(Cl)cc4)ccc3nn2C2CC2)CC1` [Compound 123], the results for the EC50 in assay [1] and in assay [2] were 5800 nM and more than 10000 nM, respectively.
Take `NC(=O)c1ccccc1C(=O)N1CCC(c2c3cc(C(c4ccc(Cl)cc4)c4ccc(Cl)cc4)ccc3nn2C2CC2)CC1` [Compound 124]: the EC50 is 236 nM in assay [1] and more than 10000 nM in assay [2].
With `CS(=O)(=O)N1CCC(Nc2n[nH]c3ccc(C(c4ccc(Cl)cc4)c4ccc(Cl)cc4)cc23)CC1` [Compound 125], the EC50 in assay [1] was 135 nM; in assay [2] it was more than 10000 nM.
